In paper PMC5298231, “The Malaria Parasite's Lactate Transporter PfFNT Is the Target of Antiplasmodial Compounds Identified in Whole Cell Phenotypic Screens” (PLoS Pathogens, 2017):

What was measured:
[1] = target: T1, PfFNT^Gly107Ser (Plasmodium falciparum, UniProt O77389, G107S); experiment: PfFNT-mediated L-[14C]lactate uptake by Xenopus oocytes expressing PfFNT Gly107Ser; format: cell-based; conditions: PfFNT Gly107Ser in Xenopus oocytes; pH 6.4, 27.5°C, 10 min; mean ± SEM, n = 4; read-out: IC50, inhibition of PfFNT-mediated L-[14C]lactate transport
T1 construct: expressed in transfected cells; host or cells: Xenopus laevis oocytes (cRNA microinjected, 30 ng)
T1 sequence (O77389 1-309 G107S): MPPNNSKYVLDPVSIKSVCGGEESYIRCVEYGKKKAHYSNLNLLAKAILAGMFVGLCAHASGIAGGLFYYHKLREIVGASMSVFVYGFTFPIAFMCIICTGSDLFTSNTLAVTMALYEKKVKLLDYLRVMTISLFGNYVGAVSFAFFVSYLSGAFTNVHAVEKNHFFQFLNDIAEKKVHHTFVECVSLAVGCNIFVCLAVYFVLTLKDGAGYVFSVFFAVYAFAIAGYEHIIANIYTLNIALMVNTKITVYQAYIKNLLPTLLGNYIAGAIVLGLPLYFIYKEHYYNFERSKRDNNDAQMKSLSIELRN
Procedure: The PfFNT-mediated uptake of L-[^14C]lactate by oocytes expressing native PfFNT (black symbols) or oocytes expressing PfFNT^Gly107Ser (white symbols) was measured in the presence of a range of different concentrations of MMV007839 (A) and MMV000972 (B). […] To enable a visual comparison between the native PfFNT and PfFNT^Gly107Ser datasets, only part of the concentration range used for the latter is shown in the main panels. The insets show the data obtained for PfFNT^Gly107Ser over the full concentration range tested. In all cases, the data are averaged from four independent experiments (using oocytes from different frogs) and are shown ± SEM. The uptake was measured at 27.5°C over 10 min at pH 6.4 using 2.7 μM L-[^14C]lactate and 600 μM unlabelled L-lactate.
The oocyte expression vectors containing PfFNT, PfENT1 and PfCRT were made previously. […] The uptake of radiolabelled substrates was measured 2–5 days post-injection at 27.5°C in ND96 buffer (containing 96 mM NaCl, 2 mM KCl, 1 mM MgCl2, 1.8 mM CaCl2, 10 mM MES and 10 mM Tris-base; pH-adjusted to the value specified in the relevant Figure legends). […] The oocytes were then transferred to separate wells of a 96-well plate, lysed with 10% SDS, and the radioactivity measured as described previously.

[2] = system: MMV007839-selected culture A (PfFNT Gly107Ser); experiment: Parasite proliferation assay, MMV007839-selected culture A; format: cell-based, Plasmodium falciparum; conditions: MMV007839-selected culture A; mean ± SEM; read-out: IC50 value, growth inhibition
Procedure: Parasite proliferation was measured in 96-well plates using a fluorescent DNA-intercalating dye. The assays were initiated with erythrocytes infected with predominantly ring-stage parasites, and the starting parasitaemia was 0.5–1% and the haematocrit was 1%.
For MMV007839-selected culture A, the drug concentration was increased by 5 nM increments on Day 18, Day 21, and every two days thereafter. […] The cultures were provided with fresh medium and blood and diluted to reduce the parasitaemia as needed.

[3] = system: Dd2 parent parasites; experiment: Parasite proliferation assay, Dd2 parent; format: cell-based, Plasmodium falciparum; conditions: Dd2 parent; mean ± SEM; read-out: IC50 value, growth inhibition
Procedure: Parasite proliferation was measured in 96-well plates using a fluorescent DNA-intercalating dye [45]. The assays were initiated with erythrocytes infected with predominantly ring-stage parasites, and the starting parasitaemia was 0.5–1% and the haematocrit was 1%.

[4] = system: 3D7 P. falciparum trophozoites; experiment: Cytosolic pH (pHcyt) measurement in BCECF-loaded saponin-isolated trophozoites

COc1ccc2c(c1)OC(O)(C(F)(F)C(F)(F)F)CC2=O (centres unmarked) [MMV007839]
IC50 [1]: 1300 ± 200 nM
IC50 [2]: 35800 ± 2700 nM
IC50 [3]: 140 ± 20 nM
Lactate-induced abrupt acidification of parasite cytosol after pre-treatment ([4]; 2.5 μM pre-treatment, 10 mM L-lactate, 4°C): no such abrupt acidification
Rate of cytosolic acidification after addition of lactate ([4]; 2.5 μM, 4°C, 10 mM L-lactate, mean ± SEM, n = 3): 0.011 ± 0.004 pH unit/min
Rate of cytosolic acidification before addition of lactate ([4]; 2.5 μM, 4°C, mean ± SEM, n = 3): 0.011 ± 0.003 pH unit/min
Cytosolic pH restored after restoration of glucose ([4]; 2.5 μM, glucose (22 mM) restored to glucose-deprived parasites, gradual alkalinisation after initial acidification of ~2 min): approximately 7.1
Effect on cytosolic pH in glucose-containing medium ([4]; glucose-containing medium, 37°C (Fig 2B,C: 1 μM)): cytosolic acidification
